Assay results: US11570982B2, “Systems and methods for natural cryoprotectants for preservation of cells” (Membrane Protective Technologies, Inc., priority 2016, dated 2023)

Experiment: Antioxidant activity (Trolox equivalent) of materials substituted for glycerol

SMILES: OCC(O)CO [Glycerol, glycerol]
- Antioxidant (Trolox equivalent μM/g): 0 µM/g
